These are literature values, as cited in patent publication US8293779B2, “Mazindol combination in the treatment of attention deficit/hyperactivity” (Assistance Publique-Hopitaux de Paris, priority 2006, dated 2012).

Each structure is given as a SMILES string. Where two headings read alike, the source gives them in different places.

For data set [1] the following is noted: unlike amphetamine molecules.
The conditions of data set [2]: animal toxicology studies.
Setting [3] is: after single or repeated oral administration.

As for `OC1(c2ccc(Cl)cc2)c2ccccc2C2=NCCN21` (centres unmarked) [mazindol, 5-(4-chlorophenyl)-2,5-dihydro-3H-imadazo[2,1-a]isoindol-5-ol], the “cardiovascular modifications or stereotypes” value in data set [1] is “does not cause cardiovascular modifications or stereotypes”. Also, the “part of the dose still plasmatically effective” value (24 hours after taking) is recorded as 75%. Also, under setting [3], the plasmatic half-life time was 33 to 55 h and the tmax is 2 to 4 h. Also, for the setting “doses of between 1 mg/day and 4 mg/day”, the pharmacokinetics dose dependence entry is listed as “linear (independent of the dose)”. Moreover, the plasmatic half-life time result (general statement) was “greater than one day”. Also, the “excretion in faeces (fraction)” value (in vivo) is reported as “¼”. For the setting “oral, with food”, the “delay of absorption by taking food concomitantly” value is listed as “approximately 1 hour” and the “effect of food on total quantity absorbed” value is “does not modify the total quantity absorbed”. Further, the “excretion in urine (fraction)” value (principal metabolism urinary) is reported as “¾”. Besides, in data set [2], the carcinogenic effect entry was “no carcinogenic effect”, the mutagenic effect result was “no mutagenic effect”, the toxic potential result is reported as “very low” and the “toxicology effect in reproduction” value is “no toxicology effect in reproduction”.
